Laboratory results as given in paper PMC9181188 (International Journal of Molecular Sciences, 2022).
In brackets after ≈: the same amount, converted by molar mass. Where two headings read alike, the source gives them in different places.

Assays:
SW480 cells = experiment: MTT assay, SW480; assay type: cell-based, human; settings: human primary colon cancer, 72 h, MTT, mean ± SD
SW620 cells = experiment: MTT assay, SW620; assay type: cell-based, human; settings: human metastatic colon cancer, 72 h, MTT, mean ± SD
HaCaT cells = experiment: MTT assay, HaCaT normal cells; assay type: cell-based; settings: human immortal keratinocyte cell line, 72 h, mean ± SD
[1] = tested on: M. tuberculosis Spec. 192 (Sensitive to Tuberculostatics); experiment: MABA (microplate Alamar blue assay) MIC; assay type: cell-based; settings: Mycobacterium tuberculosis, 336 h; 2 weeks of treatment; read-out: MIC M. tuberculosis Spec. 192 (Sensitive to Tuberculostatics)
M. tuberculosis H37Rv = experiment: MABA (microplate Alamar blue assay) MIC; assay type: cell-based; settings: Mycobacterium tuberculosis, 336 h, read-out: MIC M. tuberculosis H37Rv

SMILES | MIC [1] [µg/mL] | MIC (M. tuberculosis H37Rv; 2 weeks of treatment) [µg/mL] | also measured
N.N.[Cl][Pt][Cl] [Cisplatin, reference compound] |  |  | IC50 (SW480 cells): 10.4 ± 0.9 µM; IC50 (SW620 cells): 6.7 ± 1.1 µM
COc1cccc2c1C(=O)c1c(O)c3c(c(O)c1C2=O)C[C@@](O)(C(=O)CO)C[C@@H]3O[C@H]1C[C@H](N)[C@H](O)[C@H](C)O1 [Doxorubicin, reference compound] |  |  | IC50 (SW480 cells; Homo sapiens, SW480, 72 h): 0.75 ± 0.1 µM; IC50 (HaCaT cells): 290 ± 100 nM
CC[C@@H](CO)NCCN[C@@H](CC)CO [Ethambutol (EMB), Ethambutol, reference compound] | 2 (≈ 9.79 µM) | 2 (≈ 9.79 µM) | 
NNC(=O)c1ccncc1 [Isoniazid (INH), Isoniazid, reference compound] | 0.125 (≈ 0.911 µM) |  | MIC (M. tuberculosis H37Rv): 0.125 µg/mL (≈ 0.911 µM)
CO[C@H]1/C=C/O[C@@]2(C)Oc3c(C)c(O)c4c(O)c(c(/C=N/N5CCN(C)CC5)c(O)c4c3C2=O)NC(=O)/C(C)=C\C=C\[C@H](C)[C@H](O)[C@@H](C)[C@@H](O)[C@@H](C)[C@H](OC(C)=O)[C@@H]1C [Rifampicin (RMP), Rifampicin, reference compound] | 1 (≈ 1.22 µM) | 1 (≈ 1.22 µM) | 
[H]/N=C(/N)N[C@H]1[C@H](O)[C@@H](O)[C@H](O[C@@H]2O[C@@H](C)[C@](O)(C=O)[C@H]2O[C@@H]2O[C@@H](CO)[C@H](O)[C@@H](O)[C@@H]2NC)[C@@H](N/C(N)=N\[H])[C@@H]1O [Streptomycin (SM), Streptomycin, reference compound] | 1 (≈ 1.72 µM) | 1 (≈ 1.72 µM) | 
